# Data published in patent US20230416239A1, “COMPOUNDS AND METHODS FOR TREATING A CYTOKINE-MEDIATED DISEASE” (CONSERVATOIRE NATIONAL DES ARTS ET MÉTIERS, priority 2020, published 2023).
# Experiments:
# TNFα = TNFα (Homo sapiens, UniProt P01375); assay: Immunoassay binding test, TNFa; conditions: compounds 100 to 0.78 μM; TNFα 10 ng/ml, receptor 100 ng/ml; read-out: BINDING TNF IC50
# Description: Microtiter plates (96 wells) are covered with 100 μl of receptor per well, and incubated overnight at 4° C. The following day, after 2 washes in PBS/Tween20, the plates are saturated with 150 μl of PBS/BSA 2% per well, for 2 h at 37° C. […] The cytokine is diluted in series (six concentrations) in a final volume of 120 μl per well. […] The different mixtures are incubated for 2 h at 37° C. 100 μl of each mixture are then transferred to the microtiter plate, respecting the plate plan previously defined and incubated overnight at 4° C. After three washes, 100 μl of biotinylated anti-cytokine secondary antibody are added to each well, then incubated for 2 h at 37° C. After three washes, 100 μl of Avidin-HRP (1/500th dilution) are added and incubated for 30 minutes at 37° C. […] The plates are then read with a spectrophotometer at 450 nm, measuring the optical density for each well.
# (§1) This binding test is carried out with different cytokines: TNFa, IL-4, IL-6 and IL-13. For IL-6, the incubation of molecules with the cytokine also requires the presence of IL-6Ra at a final concentration of 200 ng/ml.
# (§2) The final concentrations used for each of the cytokines are presented below: […]
# TNFa/TNFRI interaction = TNFa/TNFRI interaction (Homo sapiens, UniProt P01375); assay: TNFa/TNFRI interaction displacement test; format: binding; conditions: for Displacement (%): compounds at 50 μM, human TNFRI 100 ng/ml; for Displacement EC50 TNFa in presence of compound: Difference: Compound EC50 minus SPD304 EC50;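 for Displacement EC50 TNFa in presence of compound: Difference: SPD304 reference at 20 µM final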
# Description: Microtiter plates (96 wells) are covered with 100 μl per well of human TNFRI, at a concentration of 100 ng/ml, then incubated overnight at 4° C. The following day, after two washes in PBS/Tween20, the plates are saturated with 150 μl of PBS/BSA 2% for 2 h at 37° C.
# 100 μl of each mixture are then transferred to the microtiter plate, respecting the established plate plan and incubated overnight at 4° C.
# After three washes, 100 μl of biotinylated anti-cytokine secondary antibody are added to each well and incubated for 2 h at 37° C. After three washes, 100 Avl Avidin-HRP (dilution 1/500th) are added and incubated for 30 minutes at 37° C. […] The plates are then read with a spectrophotometer at 450 nm, measuring the optical density (OD) for each well.
# IL-4 = target: T1, IL-4 (Homo sapiens, UniProt P05112); assay: Immunoassay binding test, IL-4; conditions: for IC50: IL-4 400 ng/ml, receptor 100 ng/ml, read-out: BINDING IL4 IC50
# T1 sequence (P05112 25-153): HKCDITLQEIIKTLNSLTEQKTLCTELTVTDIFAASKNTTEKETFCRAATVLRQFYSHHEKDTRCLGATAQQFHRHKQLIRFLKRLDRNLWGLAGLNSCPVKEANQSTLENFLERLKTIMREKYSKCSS
# Description: (§3) Microtiter plates (96 wells) are covered with 100 μl of receptor per well, and incubated overnight at 4° C. The following day, after 2 washes in PBS/Tween20, the plates are saturated with 150 μl of PBS/BSA 2% per well, for 2 h at 37° C. Synthetic compounds are diluted in series (final concentrations: 100 to 0.78 μM) then a fixed amount of cytokine in PBS/BSA 1% is added to the compounds, in a final volume of 120 μl per well. […] The cytokine is diluted in series (six concentrations) in a final volume of 120 μl per well. The cytokine is used in the absence of small molecule as well as the range of SPD304 as positive controls and the absence of cytokine and synthetic molecule as negative control. The different mixtures are incubated for 2 h at 37° C. 100 μl of each mixture are then transferred to the microtiter plate, respecting the plate plan previously defined and incubated overnight at 4° C. After three washes, 100 μl of biotinylated anti-cytokine secondary antibody are added to each well, then incubated for 2 h at 37° C. After three washes, 100 μl of Avidin-HRP (1/500th dilution) are added and incubated for 30 minutes at 37° C. […] The plates are then read with a spectrophotometer at 450 nm, measuring the optical density for each well.
# as §1, §2
# IL-13 = IL-13 (Homo sapiens, UniProt P35225); assay: Immunoassay binding test, IL-13; conditions: for IC50: IL-13 400 ng/ml, receptor 100 ng/ml, read-out: BINDING IL13 IC50
# Description: Microtiter plates (96 wells) are covered with 100 μl of receptor per well, and incubated overnight at 4° C. The following day, after 2 washes in PBS/Tween20, the plates are saturated with 150 μl of PBS/BSA 2% per well, for 2 h at 37° C. Synthetic compounds are diluted in series (final concentrations: 100 to 0.78 μM) then a fixed amount of cytokine in PBS/BSA 1% is added to the compounds, in a final volume of 120 μl per well. […] The cytokine is diluted in series (six concentrations) in a final volume of 120 μl per well. […] The different mixtures are incubated for 2 h at 37° C. 100 μl of each mixture are then transferred to the microtiter plate, respecting the plate plan previously defined and incubated overnight at 4° C. After three washes, 100 μl of biotinylated anti-cytokine secondary antibody are added to each well, then incubated for 2 h at 37° C. After three washes, 100 μl of Avidin-HRP (1/500th dilution) are added and incubated for 30 minutes at 37° C. […] The plates are then read with a spectrophotometer at 450 nm, measuring the optical density for each well.
# as §1, §2
# IL-6 = IL-6 (Homo sapiens, UniProt P05231); assay: Immunoassay binding test, IL-6 (gp130 receptor, IL-6Ra present); conditions: IL-6Ra 200 ng/ml
# Description: as §3, §1, §2
# Chain of IL-6 (P05231 30-212, species assumed): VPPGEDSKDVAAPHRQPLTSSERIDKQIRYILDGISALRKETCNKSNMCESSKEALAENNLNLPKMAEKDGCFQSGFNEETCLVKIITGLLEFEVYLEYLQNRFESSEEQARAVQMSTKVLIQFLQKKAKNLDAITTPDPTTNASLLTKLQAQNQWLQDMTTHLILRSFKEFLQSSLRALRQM
# Chain of IL-13 (P35225 25-146, species assumed): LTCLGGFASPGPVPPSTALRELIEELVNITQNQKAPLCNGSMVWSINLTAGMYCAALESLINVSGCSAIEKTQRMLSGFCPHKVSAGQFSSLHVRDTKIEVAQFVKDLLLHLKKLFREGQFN
# Chain of TNFa/TNFRI interaction (P01375 77-233 limits assumed): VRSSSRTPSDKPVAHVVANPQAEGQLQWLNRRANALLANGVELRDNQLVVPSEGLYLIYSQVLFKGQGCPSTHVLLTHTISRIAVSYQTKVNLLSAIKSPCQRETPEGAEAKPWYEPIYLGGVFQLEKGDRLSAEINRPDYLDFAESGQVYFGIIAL
# Chain of TNFα (P01375 77-233 limits assumed, species assumed): as the sequence (P01375 77-233 limits assumed) above
IC50 (TNFα),Displacement (%) (TNFa/TNFRI interaction),BINDING IL4 % Neutra at 100 μM (IL-4),IC50 (IL-4),BINDING IL13 % Neutra at 100 μM (IL-13),BINDING IL6 % Neutra at 100 μM (IL-6),IC50 (IL-13),Displacement EC50 TNFa in presence of compound: Difference (TNFa/TNFRI interaction),SMILES
> 50 µM,35%,13.7%,> 100 µM,0%,0%,–,–,NS(=O)(=O)NCCCCN(Cc1cccnc1F)Cc1cn(S(=O)(=O)c2ccccc2)c2ccccc12 [Compound 77]
9.9 µM,127%,93.4%,6.2 µM,90.2%,0%,> 50 µM,–,CCCN(CCCCN(Cc1cccnc1F)Cc1cn(S(=O)(=O)c2ccccc2)c2ccccc12)C1CCCC1 [Compound 98]
15.9 µM,125%,97.7%,3.9 µM,76.3%,15.5%,> 50 µM,–,CN(CCN(Cc1cccnc1)Cc1cn(-c2cccc(C(F)(F)F)c2)c2ccccc12)C1CCCCC1 [Compound 32]
19.9 µM,157%,96.4%,2.7 µM,94.2%,16.4%,11.2 µM,4.2 ng/mL,CN(CCCCCN(Cc1cccnc1)Cc1cn(-c2cccc(C(F)(F)F)c2)c2ccccc12)C1CCCCC1 [Compound 40]
15 µM,63%,95.6%,2 µM,94.7%,0%,2.6 µM,–,O=S(=O)(c1ccccc1)n1cc(CN(CCCCNC2CCCCC2)Cc2cn(S(=O)(=O)c3ccccc3)c3ccccc23)c2ccccc21 [Compound 89]
7.5 µM,162%,91.2%,11.5 µM,74.3%,0%,> 50 µM,–,"CN(CCOCCN(Cc1cccnc1F)Cc1cn(S(=O)(=O)c2ccccc2)c2ccccc12)C1CCCC1 [Compound 105, N-(2-(2-(((2-fluoropyridin-3-yl)methyl)((1-(phenylsulfonyl)-1H-indol-3-yl)methyl)amino)ethoxy)ethyl)-N-methylcyclopentanamine]"
13.2 µM,124%,91.9%,2.6 µM,93.4%,0%,10.2 µM,–,O=S(=O)(c1ccccc1)n1cc(CN(CCCCCNC2CCCCC2)Cc2ccc(F)nc2)c2ccccc21 [Compound 56]
9.4 µM,146%,97.3%,8.5 µM,86.2%,3.3%,> 50 µM,7.8 ng/mL,O=S(=O)(c1ccccc1)n1cc(CN(CCCNC2CCCCC2)Cc2cccnc2)c2ccccc21 [Compound 7]
> 50 µM,2%,36.4%,–,0%,0%,–,–,O=[N+]([O-])c1ccccc1S(=O)(=O)NCCCN(Cc1cccnc1)Cc1cn(S(=O)(=O)c2ccccc2)c2ccccc12 [Compound 60]
16.9 µM,120%,98.4%,4.1 µM,95.2%,-1.3%,> 50 µM,–,FC(F)(F)c1cccc(-n2cc(CN(CCCCNC3CCCCC3)Cc3ccncc3)c3ccccc32)c1 [Compound 22]
8 µM,128%,87.7%,8.6 µM,83.0%,0%,> 50 µM,–,CCN(CCOCCN(Cc1cccnc1F)Cc1cn(S(=O)(=O)c2ccccc2)c2ccccc12)C1CCCCC1 [Compound 100]
